Where only a bound is given, the exact number is not on record here.

The assay has as its target T1, CDK12 complexed with Cyclin K (Homo sapiens, UniProt Q9NYV4).
T1 construct: GST (N); host or cells: baculovirus expression system
Description: CDK enzymatic assay (HTRF, LANCE Ultra kinase assay). The class given is biochemical. To be noted: 60 minutes pre-incubation with compound; 1 mM ATP. As for the experimental part: The following activity of the CDK enzymes in complex with their respective cyclins we assayed: CDK1 complexed with Cyclin B1; CDK2 complexed with Cyclin E1; CDK4 complexed with Cyclin D1; CDK6 complexed with Cyclin D1; CDK6 complexed with Cyclin D3; CDK9 complexed with Cyclin T1; CDK7 complexed with Cyclin H/MAT1; CDK2 complexed with Cyclin A2; CDK5 complexed with p35; CDK12 complexed with Cyclin K; CDK13 complexed with Cyclin K. These in vitro enzyme activity are assayed using homogeneous time-resolved energy transfer (HTRF), which measures phosphorylation of a peptide substrate. The LANCE® Ultra kinase assay (PerkinElmer) uses a ULight™-labeled EIF4E-binding protein 1 (THR37/46) peptide (DYSTTPGGTLFSTTPGTRI (SEQ ID NO: 1)) substrate and a Europium-labeled anti-phospho-4E-BP1 antibody (CDK2, CDK1, CDK4, CDK6, CDK9, CDK12, CDK13) or ULight™-labeled Myelin Basic Protein peptide (VTPRTPPP (SEQ ID NO: 2)) substrate and a Europium-labeled anti-phospho-MBP antibody (CDK7). Each CDK enzyme activity assays utilized human CDK co-expressed as N-terminal GST-tagged protein with its full length cyclin partner using a baculovirus expression system.
Enzyme was pre-incubated with compounds for 30 minutes (CDK1,2,4,6,9) or 60 minutes (CDK7, CDK12, CDK13) prior to addition of ATP and Ulight-peptide (1 mM and 50 nM final, respectively), in assay buffer containing 50 mM HEPES pH 7.5, 1 mM EGTA, 10 mM MgCl2, 2 mM DTT, 0.05 mg/mL BSA, and 0.01% Tween 20. The reaction was then incubated for 60-90 minutes at room temperature. The reactions were stopped by the addition of EDTA and Europium labeled antibody, for a final concentration of 15 mM and 1.0-1.5 nM, respectively. HTRF signals were read after 15-120 minutes. A ratio of fluorescence transferred to the labeled substrate (665 nm) relative to fluorescence of the Europium donor (620 nm) represents the extent of phosphorylation. Ratios for treated wells were normalized to DMSO only (100% activity) and no enzyme (0% activity) controls. Normalized data was analyzed using a three or four parameter dose response curve to determine IC50 for each compound and are shown in Table A. Control reference inhibitors were included on each plate.

T1 sequence (Q9NYV4 whole entry): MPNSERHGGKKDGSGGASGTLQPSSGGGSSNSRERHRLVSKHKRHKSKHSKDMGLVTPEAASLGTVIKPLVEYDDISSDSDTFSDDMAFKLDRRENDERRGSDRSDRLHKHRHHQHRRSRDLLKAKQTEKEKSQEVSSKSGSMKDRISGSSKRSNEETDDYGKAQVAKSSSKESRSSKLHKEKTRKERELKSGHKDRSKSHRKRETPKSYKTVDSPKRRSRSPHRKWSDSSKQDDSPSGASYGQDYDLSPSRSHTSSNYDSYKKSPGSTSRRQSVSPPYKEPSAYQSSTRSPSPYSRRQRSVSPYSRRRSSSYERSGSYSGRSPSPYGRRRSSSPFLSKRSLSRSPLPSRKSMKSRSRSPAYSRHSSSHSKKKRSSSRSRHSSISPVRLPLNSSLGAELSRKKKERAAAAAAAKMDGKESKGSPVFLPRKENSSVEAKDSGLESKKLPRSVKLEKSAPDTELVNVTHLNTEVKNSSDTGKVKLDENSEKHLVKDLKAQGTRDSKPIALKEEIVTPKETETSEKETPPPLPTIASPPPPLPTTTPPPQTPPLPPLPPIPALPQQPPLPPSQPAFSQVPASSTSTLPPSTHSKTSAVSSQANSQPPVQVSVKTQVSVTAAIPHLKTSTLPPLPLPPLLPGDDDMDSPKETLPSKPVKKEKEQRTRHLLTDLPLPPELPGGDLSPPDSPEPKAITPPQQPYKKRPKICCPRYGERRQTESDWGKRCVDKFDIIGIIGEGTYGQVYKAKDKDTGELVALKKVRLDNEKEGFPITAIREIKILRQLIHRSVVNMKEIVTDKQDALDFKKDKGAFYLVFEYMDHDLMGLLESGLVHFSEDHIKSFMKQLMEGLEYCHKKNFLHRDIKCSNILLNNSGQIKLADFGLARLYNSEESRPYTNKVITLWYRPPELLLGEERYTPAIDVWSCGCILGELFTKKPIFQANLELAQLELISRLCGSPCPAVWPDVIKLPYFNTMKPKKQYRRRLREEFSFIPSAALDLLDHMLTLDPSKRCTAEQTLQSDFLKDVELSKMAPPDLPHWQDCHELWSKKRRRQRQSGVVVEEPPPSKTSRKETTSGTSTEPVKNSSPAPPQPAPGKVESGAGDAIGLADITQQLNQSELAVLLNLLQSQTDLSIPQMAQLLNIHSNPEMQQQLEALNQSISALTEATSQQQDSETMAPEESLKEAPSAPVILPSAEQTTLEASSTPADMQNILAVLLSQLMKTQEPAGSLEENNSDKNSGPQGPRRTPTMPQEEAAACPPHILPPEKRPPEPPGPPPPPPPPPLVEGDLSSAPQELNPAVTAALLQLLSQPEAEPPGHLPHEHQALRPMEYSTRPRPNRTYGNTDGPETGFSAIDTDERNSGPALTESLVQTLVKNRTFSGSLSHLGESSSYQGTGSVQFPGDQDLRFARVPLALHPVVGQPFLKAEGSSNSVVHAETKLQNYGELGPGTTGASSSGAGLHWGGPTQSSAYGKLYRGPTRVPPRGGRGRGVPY
T1 sequence (O75909 whole entry partner): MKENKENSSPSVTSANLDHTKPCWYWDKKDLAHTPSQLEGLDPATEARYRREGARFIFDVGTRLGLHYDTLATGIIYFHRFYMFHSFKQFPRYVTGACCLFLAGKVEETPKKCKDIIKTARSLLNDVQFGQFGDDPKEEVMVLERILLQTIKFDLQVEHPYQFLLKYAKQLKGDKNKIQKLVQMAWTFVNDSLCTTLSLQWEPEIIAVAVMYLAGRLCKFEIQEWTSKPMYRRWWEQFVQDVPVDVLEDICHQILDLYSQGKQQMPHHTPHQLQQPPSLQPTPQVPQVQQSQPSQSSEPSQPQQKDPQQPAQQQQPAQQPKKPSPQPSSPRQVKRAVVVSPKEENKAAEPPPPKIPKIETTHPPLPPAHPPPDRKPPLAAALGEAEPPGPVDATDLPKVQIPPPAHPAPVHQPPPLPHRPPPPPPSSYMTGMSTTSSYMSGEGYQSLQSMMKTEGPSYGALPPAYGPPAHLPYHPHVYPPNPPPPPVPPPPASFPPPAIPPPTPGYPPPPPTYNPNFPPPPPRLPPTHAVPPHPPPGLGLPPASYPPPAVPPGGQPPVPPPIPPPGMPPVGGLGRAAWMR

A word on the IC50: it is the point on the concentration scale where inhibition reaches its midpoint. For `C=CC(=O)Nc1ccc(C(=O)N2CC[C@@H](Nc3nc4ccc(-c5cn[nH]c5)c(C(F)(F)F)n4n3)C2)cc1` [Example 30, (R)-N-(4-(3-((6-(1H-Pyrazol-4-yl)-5-(trifluoromethyl)-[1,2,4]triazolo[1,5-a]pyridin-2-yl)amino)pyrrolidine-1-carbonyl)phenyl)acrylamide], the IC50 was less than 50 nM.
Then `C=CC(=O)Nc1ccc(C(=O)N2CC(Nc3nc4cnc(-c5cn[nH]c5)c(OC(C)C)n4n3)C2)cc1` [Example 1, N-(4-(3-((5-Isopropoxy-6-(1H-pyrazol-4-yl)-[1,2,4]triazolo[1,5-a]pyrazin-2-yl)amino)azetidine-1-carbonyl)phenyl)acrylamide], with less than 50 nM.
As to `C=CC(=O)Nc1ccc2c(c1)nc(N1CCC[C@@H](Nc3nc4ccc(-c5cn[nH]c5)c(C(F)(F)F)n4n3)C1)n2C` [Example 36, (R)-N-(2-(3-((6-(1H-pyrazol-4-yl)-5-(trifluoromethyl)-[1,2,4]triazolo[1,5-a]pyridin-2-yl)amino)piperidin-1-yl)-1-methyl-1H-benzo[d]imidazol-5-yl)acrylamide], the IC50 is less than 50 nM.
The value for `C=CC(=O)Nc1ccc(O[C@H]2CCC[C@@H](Nc3nc4ccc(-c5cn[nH]c5)c(N5CCCCC5)n4n3)C2)cc1` [Example 16, N-(4-(((1S,3R)-3-((5-(Piperidin-1-yl)-6-(1H-pyrazol-4-yl)-[1,2,4]triazolo[1,5-a]pyridin-2-yl)amino)cyclohexyl)oxy)phenyl)acrylamide] was less than 50 nM.
For the compound `C=CC(=O)Nc1ccc(C(=O)N2CC[C@@H](Nc3nc4ccc(-c5cnco5)cn4n3)C2)cc1` [Example 20, (R)-N-(4-(3-((6-(Oxazol-5-yl)-[1,2,4]triazolo[1,5-a]pyridin-2-yl)amino)pyrrolidine-1-carbonyl)phenyl)acrylamide], the concentration for half-maximal inhibition (IC50) is less than 50 nM.
Then `C=CC(=O)Nc1ccc(C(=O)N2CC[C@@H](Nc3nc4ccc(-c5cn[nH]c5)cn4n3)C2)cc1` [Example 11, (R)-N-(4-(3-((6-(1H-Pyrazol-4-yl)-[1,2,4]triazolo[1,5-a]pyridin-2-yl)amino)pyrrolidine-1-carbonyl)phenyl)acrylamide], with less than 50 nM; and `C=CC(=O)Nc1ccc2sc(N3CCC[C@@H](Nc4nc5ccc(-c6cn[nH]c6)c(C)n5n4)C3)nc2c1` [Example 29, (R)-N-(2-(3-((5-Methyl-6-(1H-pyrazol-4-yl)-[1,2,4]triazolo[1,5-a]pyridin-2-yl)amino)piperidin-1-yl)benzo[d]thiazol-5-yl)acrylamide], with less than 50 nM; and `C=CC(=O)Nc1ccc(C(=O)N2CCC[C@@H](Nc3nc4ccc(-c5cn[nH]c5)c(N5CCC(F)(F)CC5)n4n3)C2)cc1` [Example 13, (R)-N-(4-(3-((5-(4,4-Difluoropiperidin-1-yl)-6-(1H-pyrazol-4-yl)-[1,2,4]triazolo[1,5-a]pyridin-2-yl)amino)piperidine-1-carbonyl)phenyl)acrylamide], with 50 to 500 nM.
In the case of `C=CC(=O)Nc1ccc(C(=O)N2CC[C@@H](Nc3nc4cc(C)c(-c5cn[nH]c5)cn4n3)C2)cc1` [Example 24, (R)-N-(4-(3-((7-Methyl-6-(1H-pyrazol-4-yl)-[1,2,4]triazolo[1,5-a]pyridin-2-yl)amino)pyrrolidine-1-carbonyl)phenyl)acrylamide], the IC50 is 50 to 500 nM.
Then `C=CC(=O)Nc1ccc(C(=O)N2CC[C@@H](Nc3nc4ccc(-c5cn[nH]c5)c(C)n4n3)C2)cc1` [Example 12, (R)-N-(4-(3-((5-Methyl-6-(1H-pyrazol-4-yl)-[1,2,4]triazolo[1,5-a]pyridin-2-yl)amino)pyrrolidine-1-carbonyl)phenyl)acrylamide], with less than 50 nM.
The value for `C=C(F)C(=O)Nc1ccc(C(=O)N2CC[C@@H](Nc3nc4c(C)c(-c5cn[nH]c5)ccn4n3)C2)cc1` [Example 32, (R)-2-Fluoro-N-(4-(3-((8-methyl-7-(1H-pyrazol-4-yl)-[1,2,4]triazolo[1,5-a]pyridin-2-yl)amino)pyrrolidine-1-carbonyl)phenyl)acrylamide] was less than 50 nM.

(Values after US12084453B2, “Bicyclic amines as CDK12 inhibitors” (Incyte Corporation, priority 2021, dated 2024).)
